Values joined by “and” are separate entries in the source; they are usually repeats but may differ in a detail not shown here. Equal entries are not always repeated.

One test concerns the target T1, LTK (Homo sapiens, UniProt P29376).
T1 construct: purchased ProQinase; host or cells: Sf9 insect cells or E. coli
As to the kind of experiment: 33PanQinase radiometric kinase assay, LTK. Format: biochemical. How it is done:
(§1) A radiometric protein kinase assay (33PanQinase Activity Assay) was used for measuring the kinase activity of the 320 protein kinases. All kinase assays were performed in 96-well FlashPlates™ from Perkin Elmer (Boston, Mass., USA) in a 50 μl reaction volume. The reaction cocktail was pipetted in 4 steps in the following order: • 1. 10 μl of non-radioactive ATP solution (in H2O) • 2. 25 μl of assay buffer/[γ-33P]-ATP mixture • 3. 5 μl of test sample in 10% DMSO • 4. 10 μl of enzyme/substrate mixture
(§2) All PKC assays (except the PKC-mu and the PKC-nu assay) additionally contained 1 mM CaCl2, 4 mM EDTA, 5 μg/ml phosphatidylserine and 1 μg/ml 1,2-dioleyl-glycerol.
(§3) The CAMKID, CAMK2A, CAMK2B, CAMK2D, CAMK4, CAMKK1, CAMKK2, DAPK2, EEF2K, MYLK, MYLK2 and MYLK3 assays additionally contained 1 μg/ml Calmodulin and 0.5 mM CaCl2). The PRKG1 and PRKG2 assays additionally contained 1 μM cGMP. The DNA-PK assay additionally contained 2.5 μg/ml DNA. […] Incorporation of 33Pi (counting of “cpm”) was determined with a microplate scintillation counter (Microbeta, Wallac). […]
(§4) For each kinase, the median value of the cpm of three wells was defined as “low control” (n=3). This value reflects unspecific binding of radioactivity to the plate in the absence of a protein kinase but in the presence of the substrate. […] The residual activity (in %) for each compounds well was calculated by using the following formula: […]

Another test has as its target T2, MUSK (Homo sapiens, UniProt O15146).
T2 construct: purchased ProQinase; host or cells: Sf9 insect cells or E. coli
T2 sequence (O15146 24-869): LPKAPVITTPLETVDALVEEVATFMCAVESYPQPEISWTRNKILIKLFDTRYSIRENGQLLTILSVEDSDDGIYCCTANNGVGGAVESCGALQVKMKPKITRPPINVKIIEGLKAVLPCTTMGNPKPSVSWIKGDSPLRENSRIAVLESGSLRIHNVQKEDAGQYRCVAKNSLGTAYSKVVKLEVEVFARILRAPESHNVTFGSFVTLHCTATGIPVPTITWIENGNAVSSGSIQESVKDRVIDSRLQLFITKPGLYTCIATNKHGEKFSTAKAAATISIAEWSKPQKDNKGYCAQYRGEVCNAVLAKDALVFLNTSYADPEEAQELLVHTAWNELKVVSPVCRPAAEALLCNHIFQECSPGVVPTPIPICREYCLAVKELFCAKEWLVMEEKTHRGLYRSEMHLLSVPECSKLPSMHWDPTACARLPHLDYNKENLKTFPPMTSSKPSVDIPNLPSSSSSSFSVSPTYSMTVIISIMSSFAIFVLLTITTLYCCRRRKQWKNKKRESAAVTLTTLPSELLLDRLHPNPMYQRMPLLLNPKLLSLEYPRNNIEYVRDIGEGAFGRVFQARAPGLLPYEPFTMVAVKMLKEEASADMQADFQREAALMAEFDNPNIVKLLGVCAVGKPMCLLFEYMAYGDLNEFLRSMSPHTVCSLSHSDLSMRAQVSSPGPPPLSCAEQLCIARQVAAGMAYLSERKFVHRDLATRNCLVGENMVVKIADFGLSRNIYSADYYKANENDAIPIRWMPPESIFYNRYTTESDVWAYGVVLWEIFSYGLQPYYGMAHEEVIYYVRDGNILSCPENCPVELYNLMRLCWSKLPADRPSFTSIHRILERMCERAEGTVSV
Put plainly: 33PanQinase radiometric kinase assay, MUSK. Format: biochemical. How it is done:
as §1, §2
The CAMKID, CAMK2A, CAMK2B, CAMK2D, CAMK4, CAMKK1, CAMKK2, DAPK2, EEF2K, MYLK, MYLK2 and MYLK3 assays additionally contained 1 μg/ml Calmodulin and 0.5 mM CaCl2). The PRKG1 and PRKG2 assays additionally contained 1 μM cGMP. The DNA-PK assay additionally contained 2.5 μg/ml DNA. The protein kinase reaction cocktails were incubated at 30° C. for 60 minutes. The reaction was stopped with 50 μl of 2% (v/v) H3PO4, plates were aspirated and washed two times with 200 μl 0.9% (w/v) NaCl. Incorporation of 33Pi (counting of “cpm”) was determined with a microplate scintillation counter (Microbeta, Wallac). All protein kinase assays were performed with a BeckmanCoulter Biomek 2000/SL robotic system.
All protein kinases provided by ProQinase were expressed in Sf9 insect cells or in E. coli as recombinant GST-fusion proteins or His-tagged proteins, either as full-length or enzymatically active fragments. All kinases were produced from human cDNAs and purified by either GSHaffinity chromatography or immobilized metal. Affinity tags were removed from a number of kinases during purification. […]
as §4

In a further test the test system is 320 protein kinases. As to the kind of experiment: 33PanQinase radiometric kinase assay, kinome profiling. It counts as biochemical, human. Conditions: 1 μM; 320 kinases; initial test. How it is done: as §1, §2
The CAMKID, CAMK2A, CAMK2B, CAMK2D, CAMK4, CAMKK1, CAMKK2, DAPK2, EEF2K, MYLK, MYLK2 and MYLK3 assays additionally contained 1 μg/ml Calmodulin and 0.5 mM CaCl2). […] Incorporation of 33Pi (counting of “cpm”) was determined with a microplate scintillation counter (Microbeta, Wallac). […]
Kinases from external vendors CAR=Carna Biosciences Inc.; INV=Life Technologies (Invitrogen Corporation); MIL=Merck-Millipore (Millipore Corporation) were expressed, purified and quality-controlled by virtue of the vendors readings.
For each kinase, the median value of the cpm of three wells was defined as “low control” (n=3). […] The residual activity (in %) for each compounds well was calculated by using the following formula: […]

The next test concerns the target T3, Opiate μ(OP3, MOP) (Homo sapiens, UniProt P35372).
T3 construct: Eurofins Panlabs
Put plainly: Panlab assay, Opiate μ(OP3, MOP). It counts as binding. How it is done: Compounds A, B, C, and D were tested in Panlab assays to evaluate potential off-target activity using standard assay kits. Methods employed in these studies have been adapted from the scientific literature to maximize reliability and reproducibility.
IC50 values were determined by a non-linear, least squares regression analysis using MathIQ™ (ID Business Solutions Ltd., UK). […] Where presented, the Hill coefficient (nH), defining the slope of the competitive binding curve, was calculated using MathIQ™.

A further test deals with T4, ALK (Homo sapiens, UniProt Q9UM73).
T4 construct: purchased ProQinase; host or cells: Sf9 insect cells or E. coli
T4 sequence (Q9UM73 19-1620): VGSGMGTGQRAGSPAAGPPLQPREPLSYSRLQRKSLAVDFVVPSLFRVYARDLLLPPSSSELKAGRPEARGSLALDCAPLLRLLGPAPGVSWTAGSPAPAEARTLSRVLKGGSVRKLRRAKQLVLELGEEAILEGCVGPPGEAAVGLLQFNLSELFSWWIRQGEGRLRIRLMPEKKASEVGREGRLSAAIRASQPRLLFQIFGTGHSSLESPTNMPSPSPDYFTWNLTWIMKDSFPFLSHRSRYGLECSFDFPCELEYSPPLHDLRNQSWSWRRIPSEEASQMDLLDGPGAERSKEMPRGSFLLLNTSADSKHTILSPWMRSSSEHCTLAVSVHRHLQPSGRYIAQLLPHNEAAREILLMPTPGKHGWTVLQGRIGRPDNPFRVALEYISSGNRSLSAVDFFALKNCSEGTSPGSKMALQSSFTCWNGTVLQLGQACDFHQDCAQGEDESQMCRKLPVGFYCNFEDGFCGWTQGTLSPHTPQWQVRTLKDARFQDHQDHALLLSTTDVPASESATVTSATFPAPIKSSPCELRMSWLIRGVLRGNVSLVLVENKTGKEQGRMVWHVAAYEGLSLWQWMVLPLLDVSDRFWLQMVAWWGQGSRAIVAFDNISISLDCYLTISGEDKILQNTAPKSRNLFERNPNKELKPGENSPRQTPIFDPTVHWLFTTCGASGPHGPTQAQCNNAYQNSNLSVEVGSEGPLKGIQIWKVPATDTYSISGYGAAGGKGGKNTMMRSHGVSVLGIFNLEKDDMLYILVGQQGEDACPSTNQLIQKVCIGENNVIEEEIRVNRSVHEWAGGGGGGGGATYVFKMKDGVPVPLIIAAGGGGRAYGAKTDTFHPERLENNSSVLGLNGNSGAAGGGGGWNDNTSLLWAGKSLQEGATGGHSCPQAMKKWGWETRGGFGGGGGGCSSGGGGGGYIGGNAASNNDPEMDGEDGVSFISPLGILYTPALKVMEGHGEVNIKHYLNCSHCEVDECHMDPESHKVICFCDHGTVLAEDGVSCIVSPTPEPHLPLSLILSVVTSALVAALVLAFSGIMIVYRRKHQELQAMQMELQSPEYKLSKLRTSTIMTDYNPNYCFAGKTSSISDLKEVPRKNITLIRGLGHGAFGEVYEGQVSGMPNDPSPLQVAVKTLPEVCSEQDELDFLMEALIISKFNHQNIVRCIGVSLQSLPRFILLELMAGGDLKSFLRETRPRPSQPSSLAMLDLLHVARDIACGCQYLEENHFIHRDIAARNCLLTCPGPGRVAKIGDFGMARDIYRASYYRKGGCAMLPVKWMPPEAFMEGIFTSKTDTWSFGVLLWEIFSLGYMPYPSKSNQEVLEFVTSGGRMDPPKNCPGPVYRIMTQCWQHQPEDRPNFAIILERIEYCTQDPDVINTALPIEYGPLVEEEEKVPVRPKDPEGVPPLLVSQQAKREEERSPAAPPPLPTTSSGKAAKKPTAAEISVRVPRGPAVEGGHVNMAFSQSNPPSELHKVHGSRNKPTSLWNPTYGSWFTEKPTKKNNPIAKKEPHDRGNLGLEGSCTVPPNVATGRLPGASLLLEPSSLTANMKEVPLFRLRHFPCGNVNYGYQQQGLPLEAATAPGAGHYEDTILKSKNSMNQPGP
Put plainly: 33PanQinase radiometric kinase assay, ALK. Format: biochemical. Conditions: in vitro, read-out: percent inhibition of ALK. How it is done:
as §1, §2, §3, §4

The next test has as its system OCI-AML2. Put plainly: Half-maximal growth inhibition (GI50), OCI-AML2. Conditions: Homo sapiens, 240 h, AML, M4, DNMT3A R635W, read-out: GI50 (nM), day 10. It counts as cell-based. On the procedure: (§5) Compounds A, B, C, D, and F were tested against various cell lines to probe their broad utility against cancer. Cortistatin A (CA) was also tested against the cell lines in a head to head fashion.

For another test, the system named is K562. Put plainly: Half-maximal growth inhibition (GI50), K562. Format: cell-based. Particulars: Homo sapiens, 240 h, CML, BCR-Abl, read-out: GI50 (nM), day 10. On the procedure:
as §5

T3 sequence (P35372 whole entry): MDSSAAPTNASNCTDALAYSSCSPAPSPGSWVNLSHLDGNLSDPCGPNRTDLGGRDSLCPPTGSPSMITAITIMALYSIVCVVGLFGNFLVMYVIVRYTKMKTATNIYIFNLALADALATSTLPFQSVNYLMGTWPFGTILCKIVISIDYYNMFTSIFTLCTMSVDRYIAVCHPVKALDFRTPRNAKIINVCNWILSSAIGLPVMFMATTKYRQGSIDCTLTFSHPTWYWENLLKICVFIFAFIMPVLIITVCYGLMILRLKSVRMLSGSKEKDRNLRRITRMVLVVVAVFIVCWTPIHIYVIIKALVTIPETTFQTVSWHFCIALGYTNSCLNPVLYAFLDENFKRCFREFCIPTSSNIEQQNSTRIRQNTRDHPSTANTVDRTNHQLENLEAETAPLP
T1 sequence (P29376 17-864): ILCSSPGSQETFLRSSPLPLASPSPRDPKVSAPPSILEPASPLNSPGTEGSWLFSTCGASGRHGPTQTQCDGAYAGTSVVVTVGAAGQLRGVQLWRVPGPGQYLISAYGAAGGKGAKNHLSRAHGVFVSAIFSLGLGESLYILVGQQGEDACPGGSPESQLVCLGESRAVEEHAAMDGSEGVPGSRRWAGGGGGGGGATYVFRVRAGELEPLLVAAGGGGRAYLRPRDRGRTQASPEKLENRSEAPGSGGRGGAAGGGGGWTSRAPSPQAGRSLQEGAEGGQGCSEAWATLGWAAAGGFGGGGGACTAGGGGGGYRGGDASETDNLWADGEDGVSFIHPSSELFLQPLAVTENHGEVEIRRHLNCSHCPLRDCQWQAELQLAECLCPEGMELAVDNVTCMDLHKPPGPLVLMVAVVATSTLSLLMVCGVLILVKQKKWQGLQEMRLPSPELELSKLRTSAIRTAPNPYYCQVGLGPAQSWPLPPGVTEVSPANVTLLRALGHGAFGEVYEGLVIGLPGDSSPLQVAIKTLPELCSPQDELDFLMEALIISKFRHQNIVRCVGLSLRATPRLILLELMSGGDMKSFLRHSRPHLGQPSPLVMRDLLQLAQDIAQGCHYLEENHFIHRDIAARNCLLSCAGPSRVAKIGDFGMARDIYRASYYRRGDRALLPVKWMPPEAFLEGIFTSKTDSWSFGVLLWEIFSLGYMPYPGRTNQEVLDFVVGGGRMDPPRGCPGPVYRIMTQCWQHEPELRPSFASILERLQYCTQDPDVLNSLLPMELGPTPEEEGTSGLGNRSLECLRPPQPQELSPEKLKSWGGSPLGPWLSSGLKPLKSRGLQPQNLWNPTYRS

As for `C[C@]12CC=C3C=C4CC[C@@H](O)C[C@]45CC[C@]3(O5)[C@@H]1CC[C@@H]2c1ccc2ccncc2c1` [Compound A, (3S,3aR,9R,10aR,12aS,12bR)-3-(isoquinolin-7-yl)-3a-methyl-1,2,3,3a,4,7,8,9,10,11,12,12b-dodecahydro-10a,12a-epoxybenzo[4,5]cyclohepta[1,2-e]inden-9-ol], the inhibition at 1 µM was above 50% at LTK (1 μM, 2 replicates, read-out: average percent inhibition of LTK); above 50% on MUSK (1 μM, 2 replicates, read-out: average percent inhibition of MUSK); below 10% on ALK. Also, the “inhibition of LTK upon retesting” value against LTK (up to 10 μM) was “not inhibited”. For the same compound, the “percent inhibition of MUSK, replicates” value on MUSK (1 μM, single replicates) is 36% and 111%. At MUSK (up to 10 μM), the “inhibition of MUSK upon retesting” value is reported as “not inhibited”. The “number of kinases with an average of >50% inhibition” value with 320 protein kinases worked out at 5. At Opiate μ(OP3, MOP), this compound displayed an IC50 of 5730 nM. Further, the “nH (Hill coefficient), Opiate μ(OP3, MOP)” value at Opiate μ(OP3, MOP) amounted to 0.90. Further, the Ki on Opiate μ(OP3, MOP) (Cheng and Prusoff) turned out to be 2330 nM. Also, in the test on OCI-AML2, the GI50 was found to be 4 nM.

`C[C@]12CC=C3C=C4CC[C@@H](N5C[C@H](O)[C@@H](O)C5)C[C@]45CC[C@]3(O5)[C@@H]1CC[C@@H]2c1ccc2ccncc2c1` [Compound D]: the GI50 in the test with K562 was above 1000 nM.

The record behind these values is patent publication US20180298024A1, “CORTISTATIN ANALOGS AND USES THEREOF” (President and Fellows of Harvard College, priority 2015, published 2018).
